Test results published in ChEMBL document CHEMBL3872210, “Synthesis and antiproliferative mechanism of action of pyrrolo[3',2':6,7] cyclohepta[1,2-d]pyrimidin-2-amines as singlet oxygen photosensitizers” (Eur J Med Chem, 2016).
Calls of active or inactive are those of the source. The calls are words filed in the database; no cut-off is given here.

How the values were obtained:
[1] = Photocytotoxicity against human HT-29 cells assessed as reduction in cell survival irradiated with 1.5 J/cm2 UV-light for 5 mins measured after 48 hrs by MTT assay; assay type: functional, cell-based; settings: HT-29, light or radiation study
[2] = Photocytotoxicity against human MCF7 cells assessed as reduction in cell survival irradiated with 1.5 J/cm2 UV-light for 5 mins measured after 48 hrs by MTT assay; assay type: functional, cell-based; settings: MCF7, light or radiation study
[3] = Selectivity index, ratio CC50 for cytotoxicity against human HT-29 cells to EC50 for photocytotoxicity against human HT-29 cells; assay type: toxicity, cell-based; settings: read-out: Ratio CC50/EC50
[4] = Dark toxicity against human HeLa cells assessed as reduction in cell survival measured after 30 mins by MTT assay; assay type: cell-based
[5] = Dark toxicity against human HT-29 cells assessed as reduction in cell survival measured after 30 mins by MTT assay; assay type: cell-based
[6] = Photocytotoxicity against human HeLa cells assessed as reduction in cell survival irradiated with 1.5 J/cm2 UV-light for 5 mins measured after 48 hrs by MTT assay; assay type: functional, cell-based; settings: light or radiation study
[7] = Dark toxicity against human MCF7 cells assessed as reduction in cell survival measured after 30 mins by MTT assay; assay type: cell-based
[8] = Selectivity index, ratio of CC50 for cytotoxicity against human HeLa cells to EC50 for photocytotoxicity against human HeLa cells; assay type: toxicity, cell-based; settings: read-out: Ratio CC50/EC50
[9] = Selectivity index, ratio CC50 for cytotoxicity against human MCF7 cells to EC50 for photocytotoxicity against human MCF7 cells; assay type: toxicity, cell-based; settings: read-out: Ratio CC50/EC50
[10] = Photocytotoxicity against human MCF7 cells assessed as increase in production of radical oxygen species at 4 uM pretreated for 30 mins followed by 1.5 J/cm2 UV-light irradiation for 5 mins measured after 2 hrs by H2DCFDA dye based fluorescence assay relative to control; assay type: functional
MCF7 [11] = experiment: Dark toxicity against human MCF7 cells assessed as increase in production of radical oxygen species at 1 to 4 uM after 2 hrs by H2DCFDA dye based fluorescence assay; assay type: cell-based; settings: mcf7, 2 h
[12] = Induction of mitochondrial dysfunction in human MCF7 cells at 2 uM measured after 20 mins under dark condition by Mitotracker orange CMTM-ROS/Nuclear green staining based confocal microscopic method; assay type: cell-based; settings: mcf7, 20 min
[13] = Induction of singlet oxygen photogeneration in aqueous acetonitrile solution of ADPA assessed as photobleaching of anthracene absorption upon irradiation at 2.3 10^-5M at 315 nanometer after 1 hr by UV absorption method; assay type: physicochemical; settings: buffer
[14] = Induction of apoptosis in human MCF7 cells assessed as necrotic cells at photocytotoxic EC50 irradiated with 1.5 J/cm2 UV-light measured after 6 hrs by 7-AAD/PE annexin V staining based FACS analysis; assay type: functional
MCF7 [15] = experiment: Induction of lysosomal dysfunction in human MCF7 cells at 2 uM irradiated with 1.5 J/cm2 UV-light measured after 20 mins by Lysotracker green DND staining based confocal microscopic method; assay type: functional, cell-based
MCF7 [16] = experiment: Induction of lysosomal dysfunction in human MCF7 cells at 2 uM irradiated with 1.5 J/cm2 UV-light measured after 2 hrs by Lysotracker green DND staining based confocal microscopic method; assay type: functional, cell-based
MCF7 [17] = experiment: Induction of mitochondrial dysfunction in human MCF7 cells assessed as accumulation of mitochondrial signal at perinuclear level at 2 uM irradiated with 1.5 J/cm2 UV-light measured after 20 to 120 mins by Mitotracker orange CMTM-ROS/Nuclear green staining based confocal microscopic method; assay type: functional, cell-based
[18] = Induction of apoptosis in human MCF7 cells assessed as late apoptotic cells at photocytotoxic EC50 irradiated with 1.5 J/cm2 UV-light measured after 6 hrs by 7-AAD/PE annexin V staining based FACS analysis; assay type: functional
MCF7 [19] = experiment: Induction of mitochondrial dysfunction in human MCF7 cells assessed as clustering and swelling in location at 2 uM irradiated with 1.5 J/cm2 UV-light measured after 20 to 120 mins by Mitotracker orange CMTM-ROS/Nuclear green staining based confocal microscopic method; assay type: functional, cell-based
MCF7 [20] = experiment: Induction of lysosomal membrane impairment in human MCF7 cells assessed as increase in dye accumulation in cytoplasm at 2 uM irradiated with 1.5 J/cm2 UV-light measured after 20 mins by Lysotracker green DND staining based confocal microscopic method; assay type: functional, cell-based
[21] = Induction of apoptosis in human MCF7 cells assessed as early apoptotic cells at photocytotoxic EC50 irradiated with 1.5 J/cm2 UV-light measured after 6 hrs by 7-AAD/PE annexin V staining based FACS analysis (reference value: 17 %); assay type: functional
[22] = Induction of singlet oxygen sensitization in aqueous acetonitrile solution irradiated with laser flash photolysis assessed as signal intensity absorbance at 630 nanometer by spectroscopic method; assay type: physicochemical; settings: buffer
[23] = Induction of lysosomal dysfunction in human MCF7 cells at 2 uM measured after 20 mins under dark condition by Lysotracker green DND staining based confocal microscopic method; assay type: cell-based; settings: mcf7, 20 min
[24] = Induction of singlet oxygen sensitization in aqueous acetonitrile solution irradiated with laser flash photolysis assessed as signal intensity absorbance at 355 nanometer by spectroscopic method; assay type: physicochemical; settings: buffer
MCF7 [25] = experiment: Dark toxicity against human MCF7 cells assessed as increase in production of radical oxygen species at 4 uM after 2 hrs by H2DCFDA dye based fluorescence assay; assay type: cell-based; settings: mcf7, 2 h
[26] = Induction of singlet oxygen sensitization in aqueous acetonitrile solution irradiated with laser flash photolysis assessed as signal intensity absorbance at 610 nanometer by spectroscopic method; assay type: physicochemical; settings: buffer

Structure (SMILES)	EC50 [1]	EC50 [2]	selectivity ratio [3]	CC50 at 0.5 h [4]	CC50 at 0.5 h [5]	EC50 [6]	CC50 at 0.5 h [7]	selectivity ratio [8]	selectivity ratio [9]	also measured
CCOC(=O)c1cc2c(n1Cc1ccccc1)-c1nc(Nc3ccccc3)ncc1CCC2	0.7 µM	0.24 µM	> 143	> 100 µM	> 100 µM	0.28 µM	> 100 µM	> 355	> 412	–
COc1ccc(Cn2c(C(N)=O)cc3c2-c2nc(Nc4ccccc4)ncc2CCC3)cc1	0.28 µM	0.28 µM	> 360	> 100 µM	> 100 µM	0.16 µM	> 100 µM	> 610	> 358	–
COc1ccc(Cn2c(C(N)=O)cc3c2-c2nc(NC4CCCCC4)ncc2CCC3)cc1	0.41 µM	0.18 µM	> 243	> 100 µM	> 100 µM	0.12 µM	> 100 µM	> 813	> 549	–
Cn1c(C(N)=O)cc2c1-c1nc(Nc3ccccc3)ncc1CCC2	1.85 µM	4.96 µM	> 54	> 100 µM	> 100 µM	1.12 µM	> 100 µM	> 90	> 20	–
NC(=O)c1cc2c(n1Cc1ccccc1)-c1nc(NC3CCCCC3)ncc1CCC2	0.37 µM	0.18 µM	> 270	> 100 µM	> 100 µM	0.22 µM	> 100 µM	> 463	> 569	–
NC(=O)c1cc2c(n1Cc1ccccc1)-c1nc(N)ncc1CCC2	2.17 µM	3.69 µM	> 46	> 100 µM	> 100 µM	2.09 µM	> 100 µM	> 48	> 27	–
CCOC(=O)c1cc2c(n1Cc1ccccc1)-c1nc(NC3CCCCC3)ncc1CCC2	0.08 µM	0.1 µM	> 1240	> 100 µM	> 100 µM	0.06 µM	> 100 µM	> 1670	> 1050	Activity [10]: 198%; Activity (MCF7 [11]): Non-Toxic
Cn1c(C(N)=O)cc2c1-c1nc(NC3CCCCC3)ncc1CCC2	1.5 µM	1.85 µM	> 67	> 100 µM	> 100 µM	0.82 µM	75.2 µM	> 121	41	–
CCOC(=O)c1cc2c(n1Cc1ccc(OC)cc1)-c1nc(N)ncc1CCC2	0.29 µM	0.67 µM	> 348	> 100 µM	> 100 µM	0.32 µM	> 100 µM	> 312	> 150	–
CCOC(=O)c1cc2c(n1C)-c1nc(NC3CCCCC3)ncc1CCC2	0.09 µM	0.08 µM	> 1110	> 100 µM	> 100 µM	0.08 µM	> 100 µM	> 1270	> 1250	Activity [12]: Non-Toxic; Activity [13]: Active; Activity [14]: 11%; Activity (MCF7 [15]): Active; Activity (MCF7 [16]): Active; Activity (MCF7 [17]): Active; Activity [18]: 13%; Activity (MCF7 [19]): Active; Activity [10]: 222%; Activity (MCF7 [20]): Active; Activity [21]: 47%; Activity [22]: 0.052; Activity (MCF7 [11]): Non-Toxic; Activity [23]: Non-Toxic; Activity [24]: 0.012
NC(=O)c1cc2c(n1Cc1ccccc1)-c1nc(Nc3ccccc3)ncc1CCC2	0.36 µM	1.04 µM	> 281	> 100 µM	> 100 µM	0.25 µM	66.5 µM	> 397	64	–
CCOC(=O)c1cc2c(n1Cc1ccccc1)-c1nc(N)ncc1CCC2	0.28 µM	0.79 µM	284	> 100 µM	79.2 µM	0.22 µM	73.6 µM	> 455	93	–
COc1ccc(Cn2c(C(N)=O)cc3c2-c2nc(N)ncc2CCC3)cc1	2 µM	3.26 µM	> 50	> 100 µM	> 100 µM	1.14 µM	> 100 µM	> 88	> 31	–
CCOC(=O)c1cc2c(n1Cc1ccc(OC)cc1)-c1nc(NC3CCCCC3)ncc1CCC2	0.14 µM	0.11 µM	> 735	> 100 µM	> 100 µM	0.07 µM	> 100 µM	> 1360	> 952	–
CCOC(=O)c1cc2c(n1C)-c1nc(Nc3ccccc3)ncc1CCC2	0.29 µM	0.14 µM	> 348	> 100 µM	> 100 µM	0.1 µM	> 100 µM	> 1040	> 709	–
CCOC(=O)c1cc2c(n1Cc1ccc(OC)cc1)-c1nc(Nc3ccccc3)ncc1CCC2	0.07 µM	0.86 µM	> 1470	> 100 µM	> 100 µM	0.18 µM	> 100 µM	> 559	> 117	–
Cn1c(C(N)=O)cc2c1-c1nc(N)ncc1CCC2	> 100 µM	66 µM	–	> 100 µM	> 100 µM	8.75 µM	> 100 µM	> 11	> 1.5	Activity [12]: Non-Toxic; Activity [13]: Active; Activity (MCF7 [25]): Non-Toxic; Activity [26]: 0.0146; Activity [21]: 22%; Activity [23]: Non-Toxic; Activity [24]: 0.012
CCOC(=O)c1cc2c(n1C)-c1nc(N)ncc1CCC2	1.72 µM	1.54 µM	> 58	> 100 µM	> 100 µM	0.72 µM	> 100 µM	> 139	> 65	–
